{"source": "patent US20100092526A1", "about": "“NANOEMULSION THERAPEUTIC COMPOSITIONS AND METHODS OF USING THE SAME” (NanoBio Corporation, priority 2008, published 2010)", "key": {"[1]": {"system": "Klebsiella pneumoniae", "assay": "MIC/MBC of nanoemulsions against gram-negative isolates (CLSI, alamar blue)", "format": "cell-based", "settings": "Klebsiella pneumoniae (n = 5); for MIC50 / MIC Range: nanoemulsions in the presence of 5 mM EDTA"}, "[2]": {"system": "Escherichia coli", "assay": "MIC/MBC of nanoemulsions against gram-negative isolates (CLSI, alamar blue)", "format": "cell-based", "settings": "Escherichia coli (n = 5)"}, "[3]": {"system": "Proteus mirabilis", "assay": "MIC/MBC of nanoemulsions against gram-negative isolates (CLSI, alamar blue)", "format": "cell-based", "settings": "Proteus mirabilis (n = 5); for MIC50 / MIC Range: nanoemulsions in the presence of 5 mM EDTA"}, "[4]": {"system": "Acinetobacter baumannii", "assay": "MIC/MBC of nanoemulsions against gram-negative isolates (CLSI, alamar blue)", "format": "cell-based", "settings": "Acinetobacter baumannii (n = 5); for MIC50: nanoemulsions in the presence of 5 mM EDTA"}, "[5]": {"system": "Pseudomonas aeruginosa", "assay": "MIC/MBC of nanoemulsions against gram-negative isolates (CLSI, alamar blue)", "format": "cell-based", "settings": "Pseudomonas aeruginosa (n = 5); for MIC50: nanoemulsions in the presence of 5 mM EDTA"}, "[6]": {"system": "Burkholderia cepacia", "assay": "MIC/MBC of nanoemulsions against gram-negative isolates (CLSI, alamar blue)", "format": "cell-based", "settings": "Burkholderia cepacia (n = 5), nanoemulsions in the presence of 5 mM EDTA; for MIC Range: in µg/mL"}, "[7]": {"system": "Stenotrophomonas maltophilia", "assay": "MIC/MBC of nanoemulsions against gram-negative isolates (CLSI, alamar blue)", "format": "cell-based", "settings": "Stenotrophomonas maltophilia (n = 5); nanoemulsions in the presence of 5 mM EDTA"}, "[8]": {"system": "P. aeruginosa, B. cenocepacia, A. baumannii and S. maltophilia", "assay": "MIC/MBC against all strains of Example 8", "settings": "read-out: MBC90, against all strains"}, "[9]": {"system": "Pseudomonas aeruginosa", "assay": "MIC/MBC against CF isolates (CLSI, alamar blue)", "settings": "for MBC / MIC: Pseudomonas aeruginosa"}, "[10]": {"system": "Burkholderia cenocepacia", "assay": "MIC/MBC against CF isolates (CLSI, alamar blue)", "settings": "Burkholderia cenocepacia"}, "[11]": {"system": "Acinetobacter baumannii", "assay": "MIC/MBC against clinical isolates (CLSI, alamar blue)", "settings": "Acinetobacter baumannii"}, "[12]": {"system": "Haemophilus influenzae", "assay": "Susceptibility (MIC/MBC) of H. influenzae clinical isolates", "format": "cell-based"}, "[13]": {"settings": "nanoemulsions in the presence of 5 mM EDTA"}}, "note": "Like-named read-outs stand apart in the source and are kept apart here.", "data": [{"compound": "C[C@@H](O)[C@H]1C(=O)N2C(C(=O)O)=C(SCCN=CN)C[C@H]12", "note": "[Imipenem]", "values": [{"measurement": "% resistant", "setting": "[1]", "value": 0.0, "unit": "%"}, {"measurement": "% susceptible", "setting": "[1]", "value": 100.0, "unit": "%"}, {"measurement": "MIC50", "setting": "[1]", "value": 0.25, "unit": "µg/mL"}, {"measurement": "MIC Range", "setting": "[1]", "value": "<=0.12-0.25 ^"}, {"measurement": "% resistant", "setting": "[2]", "value": 0.0, "unit": "%"}, {"measurement": "% susceptible", "setting": "[2]", "value": 100.0, "unit": "%"}, {"measurement": "MIC50", "setting": "[2]; [13]", "value": 0.25, "unit": "µg/mL"}, {"measurement": "MIC Range", "setting": "[2]; [13]", "value": "<=0.12-0.5 ^"}, {"measurement": "% resistant", "setting": "[3]", "value": 0.0, "unit": "%"}, {"measurement": "% susceptible", "setting": "[3]", "value": 100.0, "unit": "%"}, {"measurement": "MIC50", "setting": "[3]", "value": 1, "unit": "µg/mL"}, {"measurement": "MIC Range", "setting": "[3]", "value": "<=0.12-2 ^"}, {"measurement": "% resistant", "setting": "[4]", "value": 20.0, "unit": "%"}, {"measurement": "% susceptible", "setting": "[4]", "value": 80.0, "unit": "%"}, {"measurement": "MIC50", "setting": "[4]", "value": "≤ 0.12", "unit": "µg/mL"}, {"measurement": "% resistant", "setting": "[5]", "value": 20.0, "unit": "%"}, {"measurement": "% susceptible", "setting": "[5]", "value": 80.0, "unit": "%"}, {"measurement": "MIC50", "setting": "[5]", "value": 1, "unit": "µg/mL"}, {"measurement": "MIC50", "setting": "[6]", "value": 8, "unit": "µg/mL"}, {"measurement": "MIC Range", "setting": "[6]", "value": "4-8"}, {"measurement": "MIC50", "setting": "[7]", "value": "> 8", "unit": "µg/mL"}, {"measurement": "MBC", "setting": "[8]", "value": "> 32", "unit": "µg/mL"}, {"measurement": "MBC 90", "setting": "[9]; 20 CF Pseudomonas isolates", "value": ">32", "unit": "µg/mL"}, {"measurement": "MBC", "setting": "[9]; CF Pseudomonas isolate NB1", "value": 8, "unit": "µg/mL"}, {"measurement": "MIC", "setting": "[9]; CF Pseudomonas isolate NB1", "value": 1, "unit": "µg/mL"}, {"measurement": "MBC", "setting": "[9]; CF Pseudomonas isolate NB2", "value": 2, "unit": "µg/mL"}, {"measurement": "MIC", "setting": "[9]; CF Pseudomonas isolate NB2", "value": 2, "unit": "µg/mL"}, {"measurement": "MIC", "setting": "[9]; CF Pseudomonas isolate NB3", "value": 2, "unit": "µg/mL"}, {"measurement": "MBC", "setting": "[9]; CF Pseudomonas isolate NB4", "value": 8, "unit": "µg/mL"}, {"measurement": "MIC", "setting": "[9]; CF Pseudomonas isolate NB5", "value": 2, "unit": "µg/mL"}, {"measurement": "MBC", "setting": "[9]; CF Pseudomonas isolate NB6", "value": 2, "unit": "µg/mL"}, {"measurement": "MIC", "setting": "[9]; CF Pseudomonas isolate NB6", "value": 1, "unit": "µg/mL"}, {"measurement": "MBC", "setting": "[9]; CF Pseudomonas isolate NB10", "value": 8, "unit": "µg/mL"}, {"measurement": "MBC", "setting": "[9]; CF Pseudomonas isolate NB11", "value": 8, "unit": "µg/mL"}, {"measurement": "MIC", "setting": "[9]; CF Pseudomonas isolate NB11", "value": 2, "unit": "µg/mL"}, {"measurement": "MIC", "setting": "[9]; CF Pseudomonas isolate NB13", "value": 8, "unit": "µg/mL"}, {"measurement": "MIC", "setting": "[9]; CF Pseudomonas isolate NB15", "value": 8, "unit": "µg/mL"}, {"measurement": "MIC", "setting": "[9]; CF Pseudomonas isolate NB16", "value": 8, "unit": "µg/mL"}, {"measurement": "MIC", "setting": "[9]; CF Pseudomonas isolate NB20", "value": 2, "unit": "µg/mL"}, {"measurement": "MBC", "setting": "[10]; CF Burkholderia isolate NB28b", "value": 0.5, "unit": "µg/mL"}, {"measurement": "MIC", "setting": "[10]; CF Burkholderia isolate NB28b", "value": 0.5, "unit": "µg/mL"}, {"measurement": "MIC", "setting": "[10]; CF Burkholderia isolate NB29", "value": 8, "unit": "µg/mL"}, {"measurement": "MIC", "setting": "[11]", "value": 0.125, "unit": "µg/mL"}, {"measurement": "MBC", "setting": "[11]; Acinetobacter isolate NB31", "value": 1, "unit": "µg/mL"}, {"measurement": "MIC", "setting": "[11]; Acinetobacter isolate NB31", "value": 1, "unit": "µg/mL"}, {"measurement": "MBC", "setting": "[11]; Acinetobacter isolate NB35", "value": 8, "unit": "µg/mL"}, {"measurement": "MIC", "setting": "[11]; Acinetobacter isolate NB35", "value": 8, "unit": "µg/mL"}, {"measurement": "MBC", "setting": "[11]; Acinetobacter isolate NB36", "value": 0.125, "unit": "µg/mL"}, {"measurement": "MBC", "setting": "[11]; Acinetobacter isolate NB37", "value": 8, "unit": "µg/mL"}, {"measurement": "MBC", "setting": "[11]; Acinetobacter isolate NB39", "value": 2, "unit": "µg/mL"}, {"measurement": "MIC", "setting": "[11]; Acinetobacter isolate NB39", "value": 2, "unit": "µg/mL"}, {"measurement": "MIC", "setting": "[11]; Acinetobacter isolate NB40", "value": 2, "unit": "µg/mL"}, {"measurement": "MBC", "setting": "[11]; read-out: MBC 50, 10 Acinetobacter isolates", "value": 8, "unit": "µg/mL"}]}, {"compound": "CN(C)[C@@H]1C(O)=C(C(N)=O)C(=O)[C@@]2(O)C(O)=C3C(=O)c4c(O)cccc4[C@@](C)(O)[C@H]3C[C@@H]12", "note": "[Tetracycline]", "values": [{"measurement": "% resistant", "setting": "[1]", "value": 0.0, "unit": "%"}, {"measurement": "% susceptible", "setting": "[1]", "value": 100.0, "unit": "%"}, {"measurement": "MIC50", "setting": "[1]", "value": "≤ 2", "unit": "µg/mL"}, {"measurement": "MIC Range", "setting": "[1]", "value": "<=2-4 ^"}, {"measurement": "% resistant", "setting": "[2]", "value": 80.0, "unit": "%"}, {"measurement": "% susceptible", "setting": "[2]", "value": 20.0, "unit": "%"}, {"measurement": "MIC50", "setting": "[2]; [13]", "value": "> 8", "unit": "µg/mL"}, {"measurement": "% resistant", "setting": "[3]", "value": 100.0, "unit": "%"}, {"measurement": "% susceptible", "setting": "[3]", "value": 0.0, "unit": "%"}, {"measurement": "MIC50", "setting": "[3]", "value": "> 8", "unit": "µg/mL"}, {"measurement": "MIC Range", "setting": "[3]; in µg/mL", "value": ">8"}, {"measurement": "% resistant", "setting": "[4]", "value": 20.0, "unit": "%"}, {"measurement": "% susceptible", "setting": "[4]", "value": 80.0, "unit": "%"}, {"measurement": "MIC50", "setting": "[4]", "value": "≤ 2", "unit": "µg/mL"}, {"measurement": "% resistant", "setting": "[5]", "value": 40.0, "unit": "%"}, {"measurement": "% susceptible", "setting": "[5]", "value": 0.0, "unit": "%"}, {"measurement": "MIC50", "setting": "[5]", "value": 8, "unit": "µg/mL"}, {"measurement": "MIC50", "setting": "[6]", "value": "> 8", "unit": "µg/mL"}, {"measurement": "MIC Range", "setting": "[6]", "value": ">8"}, {"measurement": "MIC50", "setting": "[7]", "value": "> 8", "unit": "µg/mL"}, {"measurement": "MIC Range", "setting": "[12]; H. influenzae isolates of Table 6, nanoemulsion values as μg CPC/ml or μg BA/ml", "value": "0.5 to 16", "unit": "µg/mL"}, {"measurement": "MIC", "setting": "[12]; Haemophilus influenzae, strain 30, nanoemulsion values as μg CPC/ml or μg BA/ml", "value": 0.5, "unit": "µg/mL"}, {"measurement": "MIC", "setting": "[12]; Haemophilus influenzae, strain 32, nanoemulsion values as μg CPC/ml or μg BA/ml", "value": 2, "unit": "µg/mL"}, {"measurement": "MIC", "setting": "[12]; Haemophilus influenzae, strain 33, nanoemulsion values as μg CPC/ml or μg BA/ml", "value": 1, "unit": "µg/mL"}, {"measurement": "MIC", "setting": "[12]; Haemophilus influenzae, strain 34, nanoemulsion values as μg CPC/ml or μg BA/ml", "value": 1, "unit": "µg/mL"}, {"measurement": "MIC", "setting": "[12]; Haemophilus influenzae, strain 35, nanoemulsion values as μg CPC/ml or μg BA/ml", "value": 0.5, "unit": "µg/mL"}, {"measurement": "MIC", "setting": "[12]; Haemophilus influenzae, strain 36, nanoemulsion values as μg CPC/ml or μg BA/ml", "value": 1, "unit": "µg/mL"}, {"measurement": "MIC", "setting": "[12]; Haemophilus influenzae, strain 37, nanoemulsion values as μg CPC/ml or μg BA/ml", "value": 1, "unit": "µg/mL"}, {"measurement": "MIC", "setting": "[12]; Haemophilus influenzae, strain 38, nanoemulsion values as μg CPC/ml or μg BA/ml", "value": 0.5, "unit": "µg/mL"}, {"measurement": "MIC", "setting": "[12]; Haemophilus influenzae, strain 41, nanoemulsion values as μg CPC/ml or μg BA/ml", "value": 1, "unit": "µg/mL"}, {"measurement": "MIC", "setting": "[12]; Haemophilus influenzae, strain 42, nanoemulsion values as μg CPC/ml or μg BA/ml", "value": 1, "unit": "µg/mL"}, {"measurement": "MIC", "setting": "[12]; Haemophilus influenzae, strain 49247, nanoemulsion values as μg CPC/ml (P4075EC, W205EC) or μg BA/ml (W205GBA2)", "value": 16, "unit": "µg/mL"}, {"measurement": "MIC90", "setting": "[12]; Haemophilus influenzae, H. influenzae isolates of Table 6, nanoemulsion values as μg CPC/ml or μg BA/ml", "value": 2, "unit": "µg/mL"}]}]}
